Experimental data published in US5344843A, “Cat-1 inhibitors, pharmaceutical compositions and methods of use” (Hoffman-La Roche Inc., priority 1992, dated 1994).
Structures can show the parent of a compound that is named as a salt.

Tests used:
[1] = biological target: T1, CAT-1 (carnitine acyltransferase 1) (Rattus norvegicus, UniProt Q63704); assay: Primary Screen--Inhibition of CAT-1 in isolated mitochondria; format: biochemical; conditions: rat heart mitochondria, reduction of palmitoyl carnitine formation by 50%; read-out: Primary Screen IC50
T1 construct: This preparation is used as the isolated mitochondrial preparation; from tissue; host or cells: rat heart (atria removed), isolated mitochondria
T1 sequence (Q63704 1-772): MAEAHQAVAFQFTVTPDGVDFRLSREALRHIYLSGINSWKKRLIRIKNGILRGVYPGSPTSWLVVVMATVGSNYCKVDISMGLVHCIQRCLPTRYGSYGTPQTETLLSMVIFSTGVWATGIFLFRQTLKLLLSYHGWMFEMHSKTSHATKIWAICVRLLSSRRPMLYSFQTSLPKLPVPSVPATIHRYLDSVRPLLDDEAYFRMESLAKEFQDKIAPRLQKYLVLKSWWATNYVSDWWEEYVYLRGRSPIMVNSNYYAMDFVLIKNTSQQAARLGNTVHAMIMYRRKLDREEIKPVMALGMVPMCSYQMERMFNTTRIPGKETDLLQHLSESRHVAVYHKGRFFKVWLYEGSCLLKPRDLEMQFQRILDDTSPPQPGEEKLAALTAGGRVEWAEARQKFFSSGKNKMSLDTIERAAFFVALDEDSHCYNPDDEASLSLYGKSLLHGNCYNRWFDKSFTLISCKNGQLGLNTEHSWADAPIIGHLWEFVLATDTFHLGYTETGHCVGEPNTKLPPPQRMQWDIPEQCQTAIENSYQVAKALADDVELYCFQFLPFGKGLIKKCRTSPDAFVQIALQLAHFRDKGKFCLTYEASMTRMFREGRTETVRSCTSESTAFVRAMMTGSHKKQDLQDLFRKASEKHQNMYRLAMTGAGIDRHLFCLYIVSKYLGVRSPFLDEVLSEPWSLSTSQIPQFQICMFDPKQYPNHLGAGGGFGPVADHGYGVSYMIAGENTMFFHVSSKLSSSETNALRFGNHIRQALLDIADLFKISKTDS

[2] = biological target: T1, CAT-1 (carnitine acyltransferase 1); assay: Secondary Screen--Inhibition of CAT-1 in intact cardiac myocytes (hypoxia-induced increase in long-chain acylcarnitines); format: cell-based; design: inhibition: dose or concentration left out as unconfirmed; conditions: isolated rat cardiac myocytes; for IC50: 50% inhibition of hypoxia-induced increase in long-chain acylcarnitines; for inhibition: hypoxia
Description: Secondary Screen--Inhibition of CAT-1 in intact Cardiac Myocytes
(a) Preparation of Isolated Rat Cardiac Myocytes
Four hearts are excised from anesthetized rats and perfused retrogradly via the Langendorf technique. Each heart receives 100 mL of Krebs (NaCl, 118.4 mM; KCL, 4.6 mM; NaH2 PO4, 1.0 mM; NaHCO3, 20 mM; MgSO4, 2 mM; CaCl2, 50 μM; glucose, 11.0 mM), 100 mL of Ca++ free Krebs and finally 100 mL of 0.5% collagenase (Boehringer Mannhelm, type 1) in Hepes (NaCl, 115 mM; KCl, 5 mM; sucrose, 35 mM; glucose, 10 mM; Hepes, 10 mM; taurine, 4 mM; MgSO4, 2 mM; CaCl2, 50 μM). After these perfusions, the hearts are chopped into pieces, approx. 0.5 cm×0.5 cm and placed in four 125 mL plastic bottles along with 25 mL of collagenase/Hepes situated in a water bath maintained at 35° C. The pieces of cardiac tissue in each bottle are agitated by using a Harvard respirator connected to four glass syringes, which sucks the tissue up and down each tube during each respiratory cycle. After fifteen minutes, the collagenase/Hepes is removed and replaced with fresh collegenase/Hepes and the process repeated. The collegenase/Hepes from the subsequent fifteen minute harvests are centrifuged at 500 g to pellet the cells which are then resuspended in Hepes buffer. After six harvests, all cells are pelleted, resuspended in 2×26.5 mL of Hepes plus BSA (350 mg) and layered on top of 2×percoll gradients (21.15 mL percoll, 2.35 mL NaCl, 6 drops acetic acid). This is centfifuged at 3000 g for eight minutes forming a percoll gradient which results in viable cells being separated from damaged cells. The viable cells are removed, washed with Hepes and finally resuspended in 25 mL of Hepes.
The isolated cardiac myocytes (2 mL; approximately 1×10^6 cells) are separated into six glass pods. Into four of these are placed selected concentrations of the compound to be tested, and the cells are incubated for twenty minutes, after which the pods are centrifuged at 300 g for three minutes. 300 μL of normoxic Hepes is placed in one of the pods not containing compound and then all pods are placed in a hypoxic chamber (N2 atmosphere). Oxygen is fed via small bore steel tubes to the pod containing the normoxic buffer, while the other five pods receive pre-purified argon (99.998% pure). After two minutes, Hepes (pre-gassed with argon for at least twelve hours) is fed into the five hypoxic pods. This hypoxic environment (pO2 <10 mm Hg) is maintained for twenty minutes, after which the cells and pods are frozen by contact with a metal block precooled in liquid N2. The pods are then removed from the chamber and stored at -70° C. The carnitine assay is performed, as described below in (c), to determine the amount of long-chain acylcarnitine in the cells from the normoxic, hypoxic and hypoxic plus compound samples. […] Thus the IC50 in this screen is the concentration of test compound which produces a 50% inhibition of the hypoxia-induced increase in long-chain acylcarnitines.
(c) Long-chain Acylcarnitine Assay.
The frozen cell samples are thawed, mixed and homogenized with 40 μL of 70% PCA. The homogenate is transferred to eppendorf tubes while the homogenization tube and the glass pod is rinsed with 500 μL of 7% PCA, with the rinse being added to the eppendorf tube. This is then centrifuged at 1000 g for two minutes to pellet the precipitate (containing the long-chain acylcarnitine) and the supernatant is discarded. The pellet is washed twice with 500 μL of 7% PCA, the supernatants being discarded. The pellet is then hydrolyzed (to separate the acyl unit from carnitine to yield free carnitine) by the addition of 200 μL of aleionized H2 O and 50 μL of 5N KOH and incubated at 70° C. for ninety minutes.

| Structure (SMILES) | IC50 [1] | IC50 [2] | inhibition [2] |
| --- | --- | --- | --- |
| CCC(C)(C)C(=O)OCc1cccc(C)c1OCCOc1ccc([C@H](N)C(=O)O)cc1 [Example 298, (S)-alpha-amino-4-[2-[2-[(2,2-dimethyl-1-oxobutoxy)methyl]-6-methylphenoxy]ethoxy]benzeneacetic acid] | 2500 nM | 30 µM | – |
| O=C(O)C(=O)c1ccc(OCCOc2ccc3ccccc3c2)c([N+](=O)[O-])c1 [Example 179, 4-[2-(2-naphthalenyloxy)ethoxy]-3-nitro-alpha-oxobenzeneacetic acid] | 200 nM | 8 µM | – |
| O=C(O)C(=O)c1ccc(OCCCC(=O)c2ccc3ccccc3c2)cc1 [Example 282, 4-[[4-(2-naphthalenyl)-4-oxobutyl]oxy]-alpha-oxobenzeneacetic acid] | 400 nM | 8 µM | – |
| CCC(C)(C)C(=O)OCc1cccc(C)c1OCCSc1ccc(C(=O)C(=O)O)cc1 [Example 175, 4-[[2-[2-[(2,2-dimethyl-1-oxobutoxy)methyl]-6-methylphenoxy]ethyl]thio]-alpha-oxobenzeneacetic acid] | 500 nM | 0.2 µM | – |
| N[C@H](C(=O)O)c1ccc(OCCOC2CCCCCCC2)cc1 [Example 18, (S)-alpha-amino-4-[[2-(cyclooctyloxy)ethyl]oxy]benzeneaceticacid hydrochloride] | 37400 nM | 5 µM | – |
| O=C(O)C(=O)c1c(F)cc(OCCOc2ccc3ccccc3c2)cc1F [Example 201, 2,6-difluoro-4-[2-(2-naphthalenyloxy)ethoxy]-alpha-oxobenzeneacetic acid] | 830 nM | 7 µM | – |
| CO/N=C(/C(=O)O)c1ccc(OCCOc2ccc3ccccc3c2)s1 [Example 306, (Z)-alpha-(methoxyimino)-5-[2-(2-naphthalenyloxy)ethoxy]-2-thiopheneaceticacid (2:1) hydrate] | 300 nM | 7 µM | – |
| O=C(O)/C(=N\O)c1ccc(OCCOc2ccc3ccccc3c2)cc1 [Example 301, (Z)-alpha-(hydroxyimino)-4-[2-(2-naphthalenyloxy)ethoxy]benzeneacetic acid] | 580 nM | 2 µM | – |
| O=C(O)C(=O)c1ccc(SCCOC2CCCCCCC2)cc1 [Example 173, 4-[[2-(cyclooctyloxy)ethyl]thio]-alpha-oxobenzeneacetic acid] | 800 nM | 0.3 µM | – |
| Cc1cc(C(=O)C(=O)O)ccc1OCCOc1ccc2ccccc2c1 [Example 181, 3-methyl-4-[2-(2-naphthalenyloxy)ethoxy]-alpha-oxobenzeneacetic acid] | 400 nM | 7.5 µM | – |
| O=C(O)C(=O)c1ccc(OCCOC23CC4CC(CC(C4)C2)C3)cc1 [Example 103, alpha-oxo-4-[[2-[tricyclo(3.3.1.1-3,7)dec-1-yloxy]ethyl]oxy]benzeneacetic acid] | 1500 nM | 40 µM | – |
| O=C(O)C(=O)c1ccc(OCC(=O)c2cccc3ccccc23)cc1 [Example 284, 4-[2-(1-naphthalenyl)-2-oxoethoxy]-alpha-oxobenzeneacetic acid] | 30 nM | 0.8 µM | – |
| O=C(O)C(=O)c1ccc(C#CCOc2ccc3ccccc3c2)cc1 [Example 142, 4-[3-(2-naphthalenyloxy)-1-propynyl]-alpha-oxobenzeneacetic acid] | 1800 nM | 20 µM | – |
| O=C(O)C(=O)c1ccc(OCCSc2ccccc2)cc1 [Example 82, alpha-oxo-4-[[2-(phenylthio)ethyl]oxy]benzeneacetic acid] | 300 nM | 17.5 µM | – |
| O=C(OCC(O)CO)C(=O)c1ccc(OCCOc2ccc3ccccc3c2)s1 (racemic) [Example 5, rac.-5-[[2-(2-naphthalenyloxy)ethyl]oxy]-alpha-oxo-2-thiopheneacetic acid 2,3-dihydroxypropyl ester] | 40 nM | 0.25 µM | – |
| O=C(O)C(=O)c1ccc(OCCCCCCc2cccc(O)c2O)cc1 [Example 260, 4-[6-(2,3-dihydroxyphenyl)hexyloxy]-alpha-oxobenzeneacetic acid] | 4000 nM | – | 94% |
| O=C(O)C(=O)c1ccc(OCCOc2ccc3ccccc3c2)s1 [Example 4, 5-[[2-(2-naphthalenyloxy)ethyl]oxy]-alpha-oxo-2-thiopheneacetic acid] | 50 nM | 1 µM | – |
| O=C(O)C(=O)c1ccc(OCCOc2ccc3ccccc3c2)cc1Cl [Example 187, 2-chloro-4-[2-(2-naphthalenyloxy)ethoxy]-alpha-oxobenzeneacetic acid] | 300 nM | 9 µM | – |

| Structure (SMILES) | IC50 [1] | IC50 [2] | inhibition [2] |
| --- | --- | --- | --- |
| O=C(O)C(=O)c1ccc(OCCSc2ccc3ccccc3c2)cc1 [Example 90, 4-[[2-(2-naphthalenylthio)ethyl]oxy]-alpha-oxobenzeneacetic acid] | 270 nM | 28 µM | – |
| O=C(O)C(=O)c1ccc(OCCOc2ccc3ccccc3c2)cc1 [Example 86, 4-[[2-(2-naphthalenyloxy)ethyl]oxy]-alpha-oxobenzeneacetic acid] | 80 nM | 3 µM | – |
| O=C(O)C(=O)c1ccc(OCCOc2ccccc2)cc1 [Example 37, alpha-oxo-4-[[2-(phenoxy)ethyl]oxy]benzeneacetic acid] | 2000 nM | 37 µM | – |
| O=C(O)C(=O)c1ccc(C(=O)NCCOc2ccc3ccccc3c2)cc1 [Example 177, 4-[[[2-(2-naphthalenyloxy)ethyl]amino]carbonyl]-alpha-oxobenzeneacetic acid] | 400 nM | 25 µM | – |
| CC(C)(C)c1ccc(C(=O)COc2ccc(C(=O)C(=O)O)cc2)cc1 [Example 286] | 300 nM | 1.2 µM | – |
| CCC(C)(C)C(=O)OCc1cccc(C)c1CCCOc1ccc(C(=O)C(=O)O)cc1 [Example 223, 4-[3-[2-[(2,2-dimethyl-1-oxobutoxy)methyl]-6-methylphenyl]propoxy]-alpha-oxobenzeneacetic acid] | 1100 nM | 0.09 µM | – |
| O=C(O)C(=O)c1ccc(OCCOC2CCCCC2)cc1 [Example 99, 4-[[2-(cyclohexyloxy)ethyl]oxy]-alpha-oxobenzeneacetic acid] | 900 nM | 20 µM | – |
| O=C(O)C(=O)c1ccc(OCCOc2cccc3ccccc23)cc1 [Example 84, 4-[[2-(1-naphthalenyloxy)ethyl]oxy]-alpha-oxobenzeneacetic acid] | 80 nM | 4 µM | – |
| O=C(O)C(=O)c1ccc(OCCOc2ccc3ccccc3c2)cc1F [Example 197, 2-fluoro-4-[2-(2-naphthalenyloxy)ethoxy]-alpha-oxobenzeneacetic acid] | 160 nM | 6 µM | – |
| CCC(C)(C)C(=O)OCc1cccc(C)c1/C=C/COc1ccc(C(=O)C(=O)O)cc1 [Example 220, (E)-4-[3-[2-[(2,2-dimethyl-1-oxobutoxy)methyl]-6-methylphenyl]-2-propenyloxy]-alpha-oxobenzeneacetic acid] | 1600 nM | 0.09 µM | – |
| O=C(O)C(=O)c1ccc(OCCCCc2ccccc2)cc1 [Example 25, 4-[(4-phenybutyl)oxy]-alpha-oxobenzeneacetic acid] | 2000 nM | 12 µM | – |
| CC(C)c1cccc(-c2ccc(F)cc2)c1/C=C/COc1ccc(C(=O)C(=O)O)cc1 [Example 229, (E)-4-[3-[4'-fluoro-3-(1-methylethyl)[1,1'-biphenyl]-2-yl]-2-propenyloxy]-alpha-oxobenzeneacetic acid] | 9000 nM | 1 µM | – |
| O=C(COc1ccc(C(=O)C(=O)O)cc1)NC1CCCCCCC1 [Example 247, 4-[2-(cyclooctylamino)-2-oxoethoxy]-alpha-oxobenzeneacetic acid] | 400 nM | 30 µM | – |
| CCC(C)(C)C(=O)OCc1cccc(C)c1OCCOc1ccc(C(=O)C(=O)O)cc1 [Example 136, 4-[[2-[2-[(2,2-Dimethyl-1-oxobutoxy)methyl]-6-methylphenoxy]ethyl]oxy]-alpha-oxobenzeneacetic acid (2:1) hydrate] | 7700 nM | 0.9 µM | – |
| CCC(C)(C)C(=O)Oc1cccc2ccc(OCCOc3ccc(C(=O)C(=O)O)cc3)cc12 [Example 134, 4-[[2-[8-(2,2-dimethyl-1-oxobutoxy)-2-naphthalenyloxy]ethyl]oxy]-alpha-oxobenzeneacetic acid] | 600 nM | 0.4 µM | – |
| O=C(O)C(F)(F)c1ccc(OCCOc2ccc3ccccc3c2)cc1 [Example 13, alpha, alpha-difluoro-4-[[2-(2-naphthalenyloxy)ethyl]oxy]benzeneacetic acid] | 1750 nM | 3.8 µM | – |
| O=C(O)C(=O)c1ccc(OCC(=O)N2CCC(c3ccccc3)CC2)cc1 [Example 245, alpha-oxo-4-[2-oxo-2-(4-phenyl-1-piperidinyl)ethoxy]benzeneacetic acid] | 60 nM | – | 33% |
